The target in one data set is 17β-HSD1 (Homo sapiens (Human), UniProt P14061). Nature of the data set: 17β-HSD1 test assay (recombinant protein from Sf9 insect cells, 3H-estrone/NADPH). The format is biochemical. The settings on record: for inhibition at 1 µM: read-out: HSD 1 μM (% inhibition of HSD1); for inhibition at 0.1 µM: read-out: HSD1 100 nM (% inhibition). The essentials:
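Sf9-expressed recombinant enzyme (0.1 μg/ml) with 30 nM 3H-estrone and 1 mM NADPH in 20 mM KH2PO4 pH 7.4, 30 min at RT; inhibitor at 1 μM or 100 nM, 1% DMSO final. Quenched with TCA; conversion measured by reversed-phase HPLC with flow scintillation detection.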

For the next data set, the target named is 17β-HSD2 (Homo sapiens (Human), UniProt P37059). The data set can be described thus: 17β-HSD2 test assay (recombinant protein from Sf9 insect cells, 3H-estradiol/NAD+). Type of data set: biochemical. The following applies: for inhibition at 0.1 µM: read-out: HSD2 100 nM (% inhibition); for inhibition at 1 µM: read-out: HSD2 1 μM (% inhibition). On the procedure: Recombinant protein obtained from Sf9 insect cells (0.1 μg/ml) is incubated with 20 mM KH2PO4, pH 7.4, 30 nM ^3H-estradiol and 1 mM NAD+ for 30 min at RT in the presence of the potential inhibitor in a concentration of 1 μM or 100 nM. The stock solutions of the compounds are prepared in DMSO so that the final concentration of DMSO in the sample is 1%. After the prescribed incubation time, the reaction is quenched by adding trichloroacetic acid (10% final concentration). The samples are centrifuged in microtitration plates at 400 rpm for 10 min, and the supernatants are charged on a reversed-phase HPLC equipped with a Waters Symmetrie C18 column and
Sequence of 17β-HSD2 (P37059 whole entry): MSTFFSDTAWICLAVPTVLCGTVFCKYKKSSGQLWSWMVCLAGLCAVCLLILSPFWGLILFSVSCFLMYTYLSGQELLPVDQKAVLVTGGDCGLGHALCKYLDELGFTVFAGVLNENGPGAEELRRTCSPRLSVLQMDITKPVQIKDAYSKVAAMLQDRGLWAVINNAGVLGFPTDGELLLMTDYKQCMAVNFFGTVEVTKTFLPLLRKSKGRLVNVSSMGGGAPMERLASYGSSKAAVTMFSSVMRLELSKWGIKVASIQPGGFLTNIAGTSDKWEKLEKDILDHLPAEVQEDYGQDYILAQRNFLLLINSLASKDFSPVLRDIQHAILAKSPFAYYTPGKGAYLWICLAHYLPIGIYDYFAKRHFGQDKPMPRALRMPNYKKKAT
Waters Sentry Guard column. The isocratic HPLC run is performed at RT with a flow rate of 1 ml/min and acetonitrile/water 48:52 as the eluent. The radioactivity was measured by means of a Packard Flow Scintillation Analyzer. The percent inhibition was calculated by means of the formulas stated above.

Another data set has as its target estrogen receptor α (Homo sapiens (Human), UniProt P03372). Nature of the data set: Estrogen receptor binding assay, ERα. The settings on record: relative binding affinity (estradiol: 100%).
For another data set, the target named is estrogen receptor β (Homo sapiens (Human), UniProt Q92731). Nature of the data set: Estrogen receptor binding assay, ERβ. The following applies: relative binding affinity (estradiol: 100%).
Sequence of estrogen receptor β (Q92731 whole entry): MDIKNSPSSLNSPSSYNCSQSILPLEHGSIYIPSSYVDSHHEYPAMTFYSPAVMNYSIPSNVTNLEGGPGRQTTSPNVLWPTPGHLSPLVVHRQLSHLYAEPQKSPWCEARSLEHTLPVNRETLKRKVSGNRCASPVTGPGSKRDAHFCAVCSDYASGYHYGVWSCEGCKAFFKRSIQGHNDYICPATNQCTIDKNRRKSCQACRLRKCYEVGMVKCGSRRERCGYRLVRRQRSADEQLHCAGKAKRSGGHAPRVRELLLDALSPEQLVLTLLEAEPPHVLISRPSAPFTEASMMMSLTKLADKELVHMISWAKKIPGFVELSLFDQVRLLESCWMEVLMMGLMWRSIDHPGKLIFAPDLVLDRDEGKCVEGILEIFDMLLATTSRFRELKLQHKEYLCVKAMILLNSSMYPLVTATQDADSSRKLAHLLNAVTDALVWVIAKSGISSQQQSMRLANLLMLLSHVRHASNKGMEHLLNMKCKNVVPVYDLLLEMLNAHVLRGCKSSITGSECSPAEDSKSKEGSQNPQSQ
Data set [1] can be described thus: CaCo-2 assay (transport experiments). The following applies: human, Caco-2; initial donor concentration 50 μM. The format is in vitro ADME. The procedure: (§1) Four reference compounds (atenolol, testosterone, ketoprofene and erythromycin) were employed in each assay for evaluating the transport properties of the CaCo-2 cells. The initial concentration of the compounds in the donor compartment was 50 μM (in buffer with 1% ethanol or DMSO). […] For glycoprotein P (P-gp) studies, bidirectional experiments were performed. The absorptive and secretory permeabilities (Papp(a-b) and Papp(b-a)) were determined. Thus, erythromycin was used as a substrate, and verapamil was used as an inhibitor of P-gp. Each experiment was performed in triplicate. The integrity of the monolayer was determined by means of TEER (transepithelial electric resistance) and the permeability for each assay was determined using Lucifer Yellow. All samples of the CaCo-2 transport experiments were analyzed by means of LC/MS/MS after dilution with buffer (1:1 with 2% acetic acid).
Background: Passage across Caco-2 layers is used to estimate intestinal permeability.

The subject of another data set is CaCo-2 cells. The data set can be described thus: CaCo-2 assay (transport experiments). The format is in vitro ADME. The settings on record: for Permeability: class in words; for final basolateral concentration [μM ± SD]: initial donor concentration 50 μM. The procedure:
as §1

A further data set concerns the target CYP2D6 (Homo sapiens (Human), UniProt P10635). Nature of the data set: P450 inhibition assay CYP2D6. Type of data set: biochemical. The following applies: read-out: IC50 (mean ± SD) [μM] CYP2D6.
The nature of data set [2]: In vivo pharmacokinetics (rat), cassette dosing method. The settings on record: cassette dosing perorally 10 mg/kg, male Wistar rats; for AUC(0-t) / Tmax / AUC(0-inf): rat, plasma, po; for AUC(0-inf): extrapolated to ∞. From the text:
Labrasol/water 1/1). The plasma profiles were established by means of LC-MS/MS.

A short description of data set [3]: Test for metabolic stability, liver microsomes. The settings on record: for Slope (−k): rat liver microsomes; for half-life / microsomal CLint: rat, pH 7.4. For orientation: Liver microsomes are vesicles of endoplasmic reticulum, rich in cytochrome P450 enzymes.
Procedure: The assay was performed with liver microsomes of rats.
The incubation solution (180 μl) consists of 90 μl of a microsomal suspension of 0.33 mg/ml protein in 100 mM phosphate buffer, pH 7.4, with 90 μl NADP-regenerating system (NADP: 1 mM, glucose-6-phosphate 5 mM, glucose-6-phosphate dehydrogenase: 5 U/ml, MgCl2 5 mM).
The reaction is started by adding 20 μl of the compound to be tested in 20% ACN to the microsome/buffer mixture preincubated at 37° C. After 0, 15, 30 and 60 minutes, 200 μl of sample solution is withdrawn and subjected to ACN precipitation. The isolation of the compounds is effected by adding 200 μl ACN that contains the internal standard (1 μM) to 200 μl of sample solution and calibration standard. After shaking for 10 s and centrifugation at 4000 g, an aliquot of the supernatant is subjected to LC-MS/MS. Two controls are included, namely a positive control with 7-ethoxycoumarin as a reference to verify the microsomal enzyme activity, and a negative control in which microsomes are used that were heated for 25 minutes without a regenerating system, in order to ensure that the loss of substance is actually due to metabolization.
The amount of compound in a sample is expressed as the percent fraction of the compound remaining as compared to time t=0 (100%). The percent fraction is plotted versus time.
The target in a further data set is CYP3A4 (Homo sapiens (Human), UniProt P08684). Nature of the data set: P450 inhibition assay CYP3A4. Type of data set: biochemical. The following applies: read-out: IC50 (mean ± SD) [μM] CYP3A4.
Sequence of CYP3A4 (P08684 whole entry): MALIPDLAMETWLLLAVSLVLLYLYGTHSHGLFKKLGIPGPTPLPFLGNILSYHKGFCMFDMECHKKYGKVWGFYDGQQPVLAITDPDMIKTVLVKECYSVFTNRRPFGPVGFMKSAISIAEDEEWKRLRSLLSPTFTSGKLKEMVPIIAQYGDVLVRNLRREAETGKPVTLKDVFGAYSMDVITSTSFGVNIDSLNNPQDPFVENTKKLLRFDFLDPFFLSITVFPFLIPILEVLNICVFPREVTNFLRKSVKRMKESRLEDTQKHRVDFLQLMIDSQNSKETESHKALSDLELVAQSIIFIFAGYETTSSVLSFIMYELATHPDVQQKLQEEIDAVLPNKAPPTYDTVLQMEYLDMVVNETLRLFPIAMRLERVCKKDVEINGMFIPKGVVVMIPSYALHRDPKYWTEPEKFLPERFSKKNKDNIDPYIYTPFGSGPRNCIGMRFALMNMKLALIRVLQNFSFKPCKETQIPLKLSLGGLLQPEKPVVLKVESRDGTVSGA
A further data set deals with CYP1A2 (Homo sapiens (Human), UniProt P05177). Nature of the data set: P450 inhibition assay CYP1A2.
Sequence of CYP1A2 (P05177 whole entry): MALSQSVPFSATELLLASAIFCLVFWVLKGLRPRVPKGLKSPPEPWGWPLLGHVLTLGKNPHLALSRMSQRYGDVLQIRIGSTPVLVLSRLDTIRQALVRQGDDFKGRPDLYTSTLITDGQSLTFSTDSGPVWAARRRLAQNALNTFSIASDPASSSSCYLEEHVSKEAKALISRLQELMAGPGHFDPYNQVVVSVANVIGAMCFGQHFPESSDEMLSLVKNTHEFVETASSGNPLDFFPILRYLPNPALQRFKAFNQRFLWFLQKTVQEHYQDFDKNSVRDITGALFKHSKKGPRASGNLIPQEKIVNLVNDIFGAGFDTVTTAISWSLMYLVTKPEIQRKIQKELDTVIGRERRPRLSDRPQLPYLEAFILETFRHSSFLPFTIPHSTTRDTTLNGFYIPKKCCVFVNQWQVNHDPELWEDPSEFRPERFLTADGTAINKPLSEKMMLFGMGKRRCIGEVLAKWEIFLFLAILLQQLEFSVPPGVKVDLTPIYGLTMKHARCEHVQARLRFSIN
The next data set has as its target CYP2C9 (Homo sapiens (Human), UniProt P11712). The data set can be described thus: P450 inhibition assay CYP2C9.
The target in another data set is CYP2C19 (Homo sapiens (Human), UniProt P33261). The data set can be described thus: P450 inhibition assay CYP2C19.
Sequence of CYP2C19 (P33261 whole entry): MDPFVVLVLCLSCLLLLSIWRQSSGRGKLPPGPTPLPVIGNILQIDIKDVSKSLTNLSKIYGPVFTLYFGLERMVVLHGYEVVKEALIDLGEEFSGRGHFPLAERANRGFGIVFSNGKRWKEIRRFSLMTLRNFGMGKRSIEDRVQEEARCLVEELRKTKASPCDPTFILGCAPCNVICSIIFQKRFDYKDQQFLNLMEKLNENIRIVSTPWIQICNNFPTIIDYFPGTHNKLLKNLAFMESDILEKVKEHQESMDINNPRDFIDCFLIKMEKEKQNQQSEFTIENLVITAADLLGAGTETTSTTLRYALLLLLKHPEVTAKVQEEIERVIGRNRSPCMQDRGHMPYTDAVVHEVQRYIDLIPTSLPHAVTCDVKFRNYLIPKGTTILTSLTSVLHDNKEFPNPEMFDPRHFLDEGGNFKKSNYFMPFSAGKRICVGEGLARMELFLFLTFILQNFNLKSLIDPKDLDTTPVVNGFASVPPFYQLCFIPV
Data set [4] is described as follows: In vivo pharmacokinetics (rat), single oral administration. The following applies: single oral administration 50 mg/kg, male Wistar rats; for AUC(0-t) / Tmax / AUC(0-inf): rat, plasma; for AUC(0-inf): extrapolated to ∞.
The next data set has as its target CYP2B6 (Homo sapiens (Human), UniProt P20813). The data set can be described thus: P450 inhibition assay CYP2B6.

The structures appear in SMILES notation. Read-outs that look alike come from different tables or passages of the source.

Sequence of 17β-HSD1 (P14061 whole entry): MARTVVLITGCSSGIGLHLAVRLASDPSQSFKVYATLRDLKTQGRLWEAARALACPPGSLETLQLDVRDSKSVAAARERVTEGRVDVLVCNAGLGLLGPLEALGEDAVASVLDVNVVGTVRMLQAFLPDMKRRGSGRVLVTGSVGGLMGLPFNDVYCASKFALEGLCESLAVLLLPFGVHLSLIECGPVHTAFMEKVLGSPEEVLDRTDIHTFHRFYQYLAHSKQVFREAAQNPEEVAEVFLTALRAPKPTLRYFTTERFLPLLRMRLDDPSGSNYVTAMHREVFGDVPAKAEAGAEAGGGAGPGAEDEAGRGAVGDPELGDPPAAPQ
Sequence of CYP2D6 (P10635 whole entry): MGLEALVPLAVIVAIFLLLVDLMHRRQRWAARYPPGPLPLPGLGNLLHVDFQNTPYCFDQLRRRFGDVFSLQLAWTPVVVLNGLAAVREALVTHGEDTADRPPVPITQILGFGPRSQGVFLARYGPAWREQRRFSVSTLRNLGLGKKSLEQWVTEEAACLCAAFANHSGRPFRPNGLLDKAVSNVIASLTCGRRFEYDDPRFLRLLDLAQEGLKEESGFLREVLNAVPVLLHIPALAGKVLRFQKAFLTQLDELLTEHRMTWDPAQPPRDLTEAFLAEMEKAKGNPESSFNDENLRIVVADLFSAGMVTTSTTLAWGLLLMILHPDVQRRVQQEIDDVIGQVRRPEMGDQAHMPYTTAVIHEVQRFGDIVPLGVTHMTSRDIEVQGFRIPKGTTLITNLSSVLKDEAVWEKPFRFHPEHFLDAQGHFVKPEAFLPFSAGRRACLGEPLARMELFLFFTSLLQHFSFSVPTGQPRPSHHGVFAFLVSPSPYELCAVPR
Sequence of CYP2C9 (P11712 whole entry): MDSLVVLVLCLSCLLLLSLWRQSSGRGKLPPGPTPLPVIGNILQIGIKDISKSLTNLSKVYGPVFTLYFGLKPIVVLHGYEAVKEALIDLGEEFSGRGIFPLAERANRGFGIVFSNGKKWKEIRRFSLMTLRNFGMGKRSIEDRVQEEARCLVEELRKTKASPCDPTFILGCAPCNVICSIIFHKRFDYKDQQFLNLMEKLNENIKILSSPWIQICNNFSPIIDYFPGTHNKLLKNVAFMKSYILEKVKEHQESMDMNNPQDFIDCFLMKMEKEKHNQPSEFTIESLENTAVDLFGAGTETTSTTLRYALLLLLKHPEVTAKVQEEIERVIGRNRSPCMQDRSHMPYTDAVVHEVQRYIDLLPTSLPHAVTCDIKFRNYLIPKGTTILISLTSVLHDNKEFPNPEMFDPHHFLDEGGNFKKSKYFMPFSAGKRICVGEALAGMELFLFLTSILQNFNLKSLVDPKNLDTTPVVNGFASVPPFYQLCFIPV
Sequence of CYP2B6 (P20813 whole entry): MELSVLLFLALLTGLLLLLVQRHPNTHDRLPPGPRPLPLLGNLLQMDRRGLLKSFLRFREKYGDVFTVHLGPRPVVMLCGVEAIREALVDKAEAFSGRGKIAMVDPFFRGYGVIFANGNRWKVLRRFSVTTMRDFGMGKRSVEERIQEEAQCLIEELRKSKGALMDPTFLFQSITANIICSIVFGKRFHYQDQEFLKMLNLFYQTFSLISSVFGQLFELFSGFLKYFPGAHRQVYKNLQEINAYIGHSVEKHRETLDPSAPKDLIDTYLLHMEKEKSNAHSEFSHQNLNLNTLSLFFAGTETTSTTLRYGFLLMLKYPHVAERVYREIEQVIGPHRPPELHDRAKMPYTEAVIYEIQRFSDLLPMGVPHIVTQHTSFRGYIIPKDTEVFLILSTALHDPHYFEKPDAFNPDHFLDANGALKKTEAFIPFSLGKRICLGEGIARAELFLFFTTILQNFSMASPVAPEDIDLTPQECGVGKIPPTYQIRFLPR
Sequence of estrogen receptor α (P03372 whole entry): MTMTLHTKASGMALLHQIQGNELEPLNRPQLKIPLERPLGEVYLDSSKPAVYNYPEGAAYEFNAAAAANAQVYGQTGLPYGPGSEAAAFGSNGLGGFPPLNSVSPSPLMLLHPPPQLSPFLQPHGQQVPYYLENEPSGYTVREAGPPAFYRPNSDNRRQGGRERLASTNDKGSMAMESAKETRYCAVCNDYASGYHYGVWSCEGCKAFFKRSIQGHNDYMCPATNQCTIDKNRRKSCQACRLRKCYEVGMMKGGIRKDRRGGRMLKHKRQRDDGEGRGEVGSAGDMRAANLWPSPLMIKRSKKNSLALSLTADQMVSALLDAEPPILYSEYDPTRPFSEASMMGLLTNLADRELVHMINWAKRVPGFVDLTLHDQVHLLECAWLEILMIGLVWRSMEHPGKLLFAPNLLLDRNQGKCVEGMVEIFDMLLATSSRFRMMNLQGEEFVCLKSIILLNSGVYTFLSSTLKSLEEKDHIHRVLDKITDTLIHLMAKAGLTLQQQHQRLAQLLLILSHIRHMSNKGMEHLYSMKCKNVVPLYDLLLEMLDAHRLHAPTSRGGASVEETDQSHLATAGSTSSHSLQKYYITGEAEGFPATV

As for `Oc1cccc(-c2ccc3cc(O)ccc3c2)c1` [Compound 19, 6-(3-Hydroxyphenyl)-2-naphthol], on 17β-HSD1 (inhibitor 1 μM), the inhibition (commonly the percentage by which the read-out fell short of the control) at 1 µM came out at 94%. For the same compound, the inhibition at 0.1 µM on 17β-HSD1 (inhibitor 100 nM) amounted to 91.4%. In addition, the inhibition at 0.1 µM at 17β-HSD2 (inhibitor 100 nM) was determined as 12.4%. Also, on 17β-HSD2 (inhibitor 1 μM), the inhibition at 1 µM amounted to 16.6%. The “RBA ERα [%]” value at estrogen receptor α came to 0.23%. Besides, the “RBA ERβ [%]” value on estrogen receptor β was 0.80%. The Papp (as a rule, the rate of passage across a membrane or cell layer, normalised by area and donor concentration) at 180 min, 50 μM in [1] came out at 8.9 ×10⁻⁶ cm/s. For the same compound, in the data set on CaCo-2 cells, the “mass balance [% ± SD]” value was 37.5 ± 3.0%, the Permeability entry is recorded as “moderate” and the “final basolateral concentration [μM ± SD]” value was found to be 6.5 ± 0.2 µM. Further, on CYP2D6, the IC50 – broadly, the concentration that gives 50% inhibition – amounted to 32.6 ± 0.72 µM. Also, in [2], the “T1/2z” value is listed as 4.4 h; the “tz” value came to 24.0 h; the AUC(0-t) (in general, exposure summed from dosing to a finite time, without extrapolation to infinity) is 29700 ng·h/mL; the time of peak concentration (Tmax) (usually the time at which the peak concentration occurs) amounted to 6 h. The AUC(0-inf) (usually the area under the concentration-time curve extrapolated to infinity) in data set [2] was 30700 ng·h/mL. The “Slope (−k)” value in data set [3] is recorded as −0.055. In data set [3] (microsomes), the half-life (usually the time needed for the level to fall by half in the phase considered) is 0.21 h and the microsomal CLint – broadly, a measure of how fast metabolising enzymes remove a compound, apart from limits set by blood flow – came out at 367 µL/min/mg.
Regarding `N#Cc1cc(O)cc2ccc(-c3cccc(O)c3)cc12` [Compound 54, 3-Hydroxy-7-(3-hydroxyphenyl)-1-naphthonitrile], the inhibition at 1 µM at 17β-HSD1 (inhibitor 1 μM) amounted to 94%. On 17β-HSD1 (inhibitor 100 nM), the inhibition at 0.1 µM was 83%. This compound also registered a Papp at 180 min, 50 μM in data set [1] of 4.4 ×10⁻⁶ cm/s. Besides, the “mass balance [% ± SD]” value in the data set on CaCo-2 cells is 30.5 ± 3.1%. Further, the Permeability entry in the data set with CaCo-2 cells was “moderate”. Also, the “final basolateral concentration [μM ± SD]” value with CaCo-2 cells stood at 3.7 ± 0.3 µM. Also, the IC50 turned out to be 2.05 ± 0.18 µM at CYP3A4, 259 ± 10 nM on CYP1A2, 0.224 ± 0.002 µM at CYP2C9 and 1.21 ± 0.19 µM on CYP2C19.
On to `Oc1cccc(-c2ccc3c(-c4cccnc4)c(O)ccc3c2)c1` [Compound 59, 6-(3-Hydroxyphenyl)-1-(pyridin-3-yl)naphthalene-2-ol], for which, at 17β-HSD1, the inhibition at 1 µM turned out to be 92.3% and the inhibition at 0.1 µM was 87.4%. The inhibition at 0.1 µM at 17β-HSD2 (inhibitor 100 nM) came out at 66.1%. In addition, the inhibition at 1 µM on 17β-HSD2 (inhibitor 1 μM) was 90.3%. The compound also gave a Papp at 180 min, 50 μM in data set [1] of 13.8 ×10⁻⁶ cm/s. Moreover, in the data set with CaCo-2 cells, the “mass balance [% ± SD]” value stood at 29.9 ± 2.4%, the Permeability result is recorded as “high” and the “final basolateral concentration [μM ± SD]” value came to 11.0 ± 0.5 µM. Also, at CYP2D6, the IC50 came to 22.9 ± 1.85 µM. In addition, on CYP3A4, the IC50 was determined as 0.221 ± 0.002 µM. Besides, in [4], the AUC(0-t) amounted to 203 ng·h/mL, the Tmax turned out to be 2 h, the AUC(0-inf) was 203 ng·h/mL and the “t1/2z” value stood at 1.54 h. For the same compound, the “tz” value in [4] came out at 8.0 h. In addition, it took 14 nM to reach half-maximal inhibition against CYP1A2 (IC50). For the same compound, the IC50 at CYP2B6 (read-out: IC50 (mean ± SD) [μM] CYP2B6) stood at 5.34 ± 0.391 µM. For the same compound, the IC50 at CYP2C9 (read-out: IC50 (mean ± SD) [μM] CYP2C9) worked out at 0.15 ± 0.03 µM. For the same compound, the IC50 on CYP2C19 (read-out: IC50 (mean ± SD) [μM] CYP2C19) turned out to be 0.88 ± 0.03 µM. Also, the “Slope (−k)” value in data set [3] is reported as −0.051. In data set [3] (liver microsomes), this compound had a half-life of 0.227 h and a microsomal CLint of 340 µL/min/mg.
As for `COc1ccc(-c2c(O)ccc3cc(-c4cccc(O)c4)ccc23)cn1` [Compound 62, 6-(3-Hydroxyphenyl)-1-(6-methoxypyridin-3-yl)naphthalene-2-ol], the inhibition at 1 µM at 17β-HSD1 (inhibitor 1 μM) stood at 89.2%; on 17β-HSD2, 67.2%. The results for the inhibition at 0.1 µM at 17β-HSD1 (inhibitor 100 nM) and at 17β-HSD2 were 85.9% and 24.3%, respectively. The IC50 on CYP2D6 was determined as 40 ± 0.08 µM; on CYP3A4 it was 1.07 ± 0.05 µM; at CYP2B6 it was 10.4 ± 0.14 µM. The “Slope (−k)” value in data set [3] is on record as −0.014. This compound came in with a microsomal CLint in data set [3] (liver microsomes) of 92.8 µL/min/mg.
Take `Nc1cccc(-c2c(O)ccc3cc(-c4cccc(O)c4)ccc23)c1` [Compound 68, 1-(3-Aminophenyl)-6-(3-hydroxyphenyl)naphthalene-2-ol]: on 17β-HSD1 (inhibitor 1 μM), the inhibition at 1 µM was determined as 87.3%. In addition, the inhibition at 0.1 µM on 17β-HSD1 (inhibitor 100 nM) was found to be 74.1%. The inhibition at 0.1 µM on 17β-HSD2 (inhibitor 100 nM) is less than 10%. For the same compound, the inhibition at 1 µM at 17β-HSD2 (inhibitor 1 μM) turned out to be 39.1%. This compound also displayed a Papp at 180 min, 50 μM in data set [1] of 16.4 ×10⁻⁶ cm/s. In addition, in the data set with CaCo-2 cells, the “mass balance [% ± SD]” value worked out at 52.7 ± 3.6%, the Permeability entry is recorded as “high” and the “final basolateral concentration [μM ± SD]” value came out at 13.9 ± 0.8 µM. For the same compound, in data set [4], the AUC(0-t) was determined as 337 ng·h/mL, the Tmax turned out to be 2 h, the AUC(0-inf) is 337 ng·h/mL and the “t1/2z” value is recorded as 1.59 h. The “tz” value in [4] was determined as 8.0 h. Besides, in data set [2], the “T1/2z” value is reported as 2.4 h, the “tz” value is on record as 24.0 h, the AUC(0-t) was 539 ng·h/mL and the Tmax worked out at 2 h. In addition, the AUC(0-inf) in [2] is 540 ng·h/mL.

(Values after patent publication US8546392B2, “17Beta-hydroxysteroid dehydrogenase type 1 inhibitors for the treatment of hormone-related diseases” (Universitaet des Saarlandes, priority 2008, dated 2013).)
